Laboratory results reported in US6762174B1 (priority 1998, dated 2004).
Like-named read-outs stand apart in the source and are kept apart here.

Assays:
[1] = tested on: MT-1 breast cancer xenograft
MOPC-315 myeloma = assay: MOPC-315 Myeloma study #2: β-alethine ip day 10 (1 × 10^6 tumor cells); conditions: for Mean Tumor Size: 3 mg BT alone

NCCC(=O)NCCSSCCNC(=O)CCN [BT, β-alethine]
Median Tumor Size ([1]; BT 30 ng/kg every 14 days, day 13): 0.080 cm^3 | Median Tumor Size ([1]; BT 30 ng/kg every 14 days, day 16): 0.104 cm^3 | Median Tumor Size ([1]; BT 30 ng/kg every 14 days, day 20): 0.176 cm^3 | Median Tumor Size ([1]; BT 30 ng/kg every 14 days, day 23): 0.202 cm^3 | Median Tumor Size ([1]; BT 30 ng/kg every 14 days, day 27): 0.250 cm^3 | Median Tumor Size ([1]; BT 30 ng/kg every 14 days, day 30): 0.294 cm^3 | Median Tumor Size ([1]; BT 30 ng/kg every 14 days, day 34): 0.298 cm^3 | Median Tumor Size ([1]; BT 30 ng/kg every 14 days, day 38): 0.426 cm^3 | Median Tumor Size ([1]; BT 30 ng/kg every 14 days, day 41): 0.429 cm^3 | Median Tumor Size ([1]; BT 30 ng/kg every 14 days, day 45): 0.419 cm^3 | RTV ([1]; BT 30 ng, day 13): 1 | RTV ([1]; BT 30 ng, day 16): 1.4 | RTV ([1]; BT 30 ng, day 20): 2.1 | RTV ([1]; BT 30 ng, day 23): 2.3 | RTV ([1]; BT 30 ng, day 27): 2.8 | RTV ([1]; BT 30 ng, day 30): 3.4 | RTV ([1]; BT 30 ng, day 34): 3.8 | RTV ([1]; BT 30 ng, day 38): 4.5 | RTV ([1]; BT 30 ng, day 41): 4.9 | RTV ([1]; BT 30 ng, day 45): 6.0 | Median Tumor Size ([1]; BT 30 ug/kg every 14 days, day 13): 0.055 cm^3 | Median Tumor Size ([1]; BT 30 ug/kg every 14 days, day 16): 0.095 cm^3 | Median Tumor Size ([1]; BT 30 ug/kg every 14 days, day 20): 0.180 cm^3 | Median Tumor Size ([1]; BT 30 ug/kg every 14 days, day 23): 0.193 cm^3 | Median Tumor Size ([1]; BT 30 ug/kg every 14 days, day 27): 0.325 cm^3 | Median Tumor Size ([1]; BT 30 ug/kg every 14 days, day 30): 0.408 cm^3 | Median Tumor Size ([1]; BT 30 ug/kg every 14 days, day 34): 0.410 cm^3 | Median Tumor Size ([1]; BT 30 ug/kg every 14 days, day 38): 0.607 cm^3 | Median Tumor Size ([1]; BT 30 ug/kg every 14 days, day 41): 0.696 cm^3 | Median Tumor Size ([1]; BT 30 ug/kg every 14 days, day 45): 0.743 cm^3 | RTV ([1]; BT 30 ug, day 13): 1 | RTV ([1]; BT 30 ug, day 16): 1.4 | RTV ([1]; BT 30 ug, day 20): 2.6 | RTV ([1]; BT 30 ug, day 23): 3.0 | RTV ([1]; BT 30 ug, day 27): 4.3 | RTV ([1]; BT 30 ug, day 30): 5.2 | RTV ([1]; BT 30 ug, day 34): 6.0 | RTV ([1]; BT 30 ug, day 38): 9.1 | RTV ([1]; BT 30 ug, day 41): 11.5 | RTV ([1]; BT 30 ug, day 45): 14.0 | Median Tumor Size ([1]; BT 30 fg/kg every 14 days, day 13): 0.104 cm^3 | Median Tumor Size ([1]; BT 30 fg/kg every 14 days, day 16): 0.128 cm^3 | Median Tumor Size ([1]; BT 30 fg/kg every 14 days, day 20): 0.213 cm^3 | Median Tumor Size ([1]; BT 30 fg/kg every 14 days, day 23): 0.253 cm^3 | Median Tumor Size ([1]; BT 30 fg/kg every 14 days, day 27): 0.442 cm^3 | Median Tumor Size ([1]; BT 30 fg/kg every 14 days, day 30): 0.637 cm^3 | Median Tumor Size ([1]; BT 30 fg/kg every 14 days, day 34): 1.062 cm^3 | Median Tumor Size ([1]; BT 30 fg/kg every 14 days, day 38): 1.241 cm^3 | Median Tumor Size ([1]; BT 30 fg/kg every 14 days, day 41): 1.464 cm^3 | Median Tumor Size ([1]; BT 30 fg/kg every 14 days, day 45): 1.911 cm^3 | RTV ([1]; BT 30 fg, day 13): 1 | RTV ([1]; BT 30 fg, day 16): 1.6 | RTV ([1]; BT 30 fg, day 20): 3.4 | RTV ([1]; BT 30 fg, day 23): 4.4 | RTV ([1]; BT 30 fg, day 27): 7.6 | RTV ([1]; BT 30 fg, day 30): 9.3 | RTV ([1]; BT 30 fg, day 34): 11.9 | RTV ([1]; BT 30 fg, day 38): 16.1 | RTV ([1]; BT 30 fg, day 41): 18.2 | RTV ([1]; BT 30 fg, day 45): 19.8 | Mean Tumor Size (MOPC-315 myeloma; day 10): 21.5 mm | Mean Tumor Size (MOPC-315 myeloma; day 14): 24 mm | Mean Tumor Size (MOPC-315 myeloma; day 17): 24 mm | Mean Tumor Size (MOPC-315 myeloma; day 21): (dead) | Animals Surviving (MOPC-315 myeloma; BT 3 ng/kg, day 10): 10 | Animals Surviving (MOPC-315 myeloma; BT 3 ng/kg, day 11): 10 | Animals Surviving (MOPC-315 myeloma; BT 3 ng/kg, day 12): 10 | Animals Surviving (MOPC-315 myeloma; BT 3 ng/kg, day 13): 10 | Animals Surviving (MOPC-315 myeloma; BT 3 ng/kg, day 14): 7 | Animals Surviving (MOPC-315 myeloma; BT 3 ng/kg, day 15): 5 | Animals Surviving (MOPC-315 myeloma; BT 3 ng/kg, day 16): 5 | Animals Surviving (MOPC-315 myeloma; BT 3 ng/kg, day 17): 4 | Animals Surviving (MOPC-315 myeloma; BT 3 ng/kg, day 18): 1 | Animals Surviving (MOPC-315 myeloma; BT 3 ng/kg, day 19): 1 | Animals Surviving (MOPC-315 myeloma; BT 3 ng/kg, day 20): 1 | Animals Surviving (MOPC-315 myeloma; BT 3 ng/kg, day 21): 0 | Animals Surviving (MOPC-315 myeloma; BT 100 μg/kg, day 10): 10 | Animals Surviving (MOPC-315 myeloma; BT 100 μg/kg, day 11): 9 | Animals Surviving (MOPC-315 myeloma; BT 100 μg/kg, day 12): 6 | Animals Surviving (MOPC-315 myeloma; BT 100 μg/kg, day 13): 5 | Animals Surviving (MOPC-315 myeloma; BT 100 μg/kg, day 14): 5 | Animals Surviving (MOPC-315 myeloma; BT 100 μg/kg, day 15): 5 | Animals Surviving (MOPC-315 myeloma; BT 100 μg/kg, day 16): 4 | Animals Surviving (MOPC-315 myeloma; BT 100 μg/kg, day 17): 4 | Animals Surviving (MOPC-315 myeloma; BT 100 μg/kg, day 18): 1 | Animals Surviving (MOPC-315 myeloma; BT 100 μg/kg, day 19): 1 | Animals Surviving (MOPC-315 myeloma; BT 100 μg/kg, day 20): 0 | Animals Surviving (MOPC-315 myeloma; BT 3 mg/kg, day 10): 10 | Animals Surviving (MOPC-315 myeloma; BT 3 mg/kg, day 11): 9 | Animals Surviving (MOPC-315 myeloma; BT 3 mg/kg, day 12): 6 | Animals Surviving (MOPC-315 myeloma; BT 3 mg/kg, day 13): 5 | Animals Surviving (MOPC-315 myeloma; BT 3 mg/kg, day 14): 5 | Animals Surviving (MOPC-315 myeloma; BT 3 mg/kg, day 15): 5 | Animals Surviving (MOPC-315 myeloma; BT 3 mg/kg, day 16): 4 | Animals Surviving (MOPC-315 myeloma; BT 3 mg/kg, day 17): 4 | Animals Surviving (MOPC-315 myeloma; BT 3 mg/kg, day 18): 1 | Animals Surviving (MOPC-315 myeloma; BT 3 mg/kg, day 19): 1 | Animals Surviving (MOPC-315 myeloma; BT 3 mg/kg, day 20): 0 | Animals Surviving (MOPC-315 myeloma; BT 30 fg/kg, day 10): 10 | Animals Surviving (MOPC-315 myeloma; BT 30 fg/kg, day 11): 10 | Animals Surviving (MOPC-315 myeloma; BT 30 fg/kg, day 12): 9 | Animals Surviving (MOPC-315 myeloma; BT 30 fg/kg, day 13): 7 | Animals Surviving (MOPC-315 myeloma; BT 30 fg/kg, day 14): 5 | Animals Surviving (MOPC-315 myeloma; BT 30 fg/kg, day 15): 5 | Animals Surviving (MOPC-315 myeloma; BT 30 fg/kg, day 16): 1 | Animals Surviving (MOPC-315 myeloma; BT 30 fg/kg, day 17): 1 | Animals Surviving (MOPC-315 myeloma; BT 30 fg/kg, day 18): 0
